Reference: paper PMC4640224, “Phosphorylation of a splice variant of collapsin response mediator protein 2 in the nucleus of tumour cells links cyclin dependent kinase-5 to oncogenesis” (BMC Cancer, 2015)

Key:
MCF-7 = MCF-7 breast cancer cell line; cited from earlier work
Excerpt: (§1) Similarly, CDK5 levels decrease in gastric cancer and its nuclear accumulation suppresses gastric tumorigenesis.

MDA-MB321 = MDA-MB321 breast cancer cell line; cited from earlier work
Excerpt: as §1

[1] = test system: CMGC protein kinase family; test: Peptide phosphorylation by several members of the CMGC kinase family (selectivity); format: biochemical; conditions: 50 μM peptide, 2 mUnits of each kinase, 30 min, Fig. 1d
Method: (§2) Specific activity (pmol/min) was determined for all protein kinases by incubating known amounts of kinase (0.01-1 μg) with the generic substrate myelin basic protein (MBP, 0.3 mg/ml final) in kinase buffer (25 mM MOPS pH 7.5, 0.05 % (v/v) Brij-35, 0.25 mM EDTA, 5 % (v/v) glycerol) plus 10 mM MgCl2, and 100 μM [γ-32P] ATP (approx 0.5 × 10^6 CPM/nmol) as previously described. Peptide kinase assays were performed with 2mUnits of each kinase as above, except MBP was replaced with the peptide at the concentration given in figure legends. One unit of activity of each protein kinase was calculated as 1 nmole of phosphate transferred/min.
(§3) Fig. 1 In vitro analysis of primary sequence determinants for p35/CDK5 and p25/CDK5. a The contribution of C-terminal Arg/Lys residues to recognition and phosphorylation by each CDK5 complex was assessed by incubating the peptides at the indicated concentrations with 2 m units of each CDK5 complex for 20 mins and measuring phosphate transferred to each peptide. b Each CDK5 complex was incubated for 20 mins with 100 μM of the indicated peptides representing the primary sequence of the 4 classes of CDK5 substrates. The phosphorylated residue is underlined. c To assess the contribution of specific residues ±2 positions from the target residue a further 4 peptides (at 100 μM) were incubated with 2mUnits of each CDK5 complex for 30 mins. The residue changed from the parent sequence (peptide 1.0) is in italics in each case. *indicates p < 0.05 compared to peptide 1.0. d The rate of phosphorylation of the indicated peptides by several members of the CMGC family of kinases was compared by incubating each peptide (at 50 μM) with 2 m units (as determined against the generic substrate MBP) of each kinase for 30 mins and phosphate transfer measured. In all figures the data is presented as the average of at least two different experiments performed in duplicate ± the SEM, and is given as total picomoles transferred during the assay (a) or pmoles transferred/min (b-d)

p35/CDK5 [2] = molecular target: T1, p35/CDK5 (Homo sapiens, UniProt Q00535+Q15078); test: Peptide kinase assay with p35/CDK5; format: biochemical; conditions: 100 μM peptide; for Phosphorylation of substrate class peptides, in words: 20 min, Fig. 1b; for Rate of phosphorylation compared with related peptides, in words: 1.0 versus 1.1 and 1.2, 1.4 versus 1.3
T1 construct: purchased Millipore UK Ltd, Herts, UK
T1 sequence (Q00535 whole entry): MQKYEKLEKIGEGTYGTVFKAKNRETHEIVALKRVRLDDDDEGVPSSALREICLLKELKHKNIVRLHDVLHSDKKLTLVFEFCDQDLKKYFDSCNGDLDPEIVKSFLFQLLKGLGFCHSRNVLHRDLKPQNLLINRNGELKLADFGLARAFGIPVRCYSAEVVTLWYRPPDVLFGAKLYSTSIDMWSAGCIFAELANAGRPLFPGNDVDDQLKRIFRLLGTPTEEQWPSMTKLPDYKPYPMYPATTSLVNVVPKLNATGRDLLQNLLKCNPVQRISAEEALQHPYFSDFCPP
T1 sequence (Q15078 whole entry partner): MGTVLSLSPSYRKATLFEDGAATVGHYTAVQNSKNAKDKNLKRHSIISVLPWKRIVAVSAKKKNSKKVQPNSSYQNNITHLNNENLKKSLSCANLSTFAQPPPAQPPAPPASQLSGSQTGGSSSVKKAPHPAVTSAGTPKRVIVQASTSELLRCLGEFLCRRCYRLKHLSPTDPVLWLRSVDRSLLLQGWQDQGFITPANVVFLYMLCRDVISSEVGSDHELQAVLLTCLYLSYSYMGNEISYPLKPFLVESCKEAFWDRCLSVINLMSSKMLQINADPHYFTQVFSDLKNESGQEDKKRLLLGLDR
Method: as §2, §3

p25/CDK5 [3] = molecular target: T2, p25/CDK5 (Homo sapiens, UniProt Q00535+Q15078); test: Peptide kinase assay with p25/CDK5; format: biochemical; conditions: 100 μM peptide; for Phosphorylation of substrate class peptides, in words: 20 min, Fig. 1b; for Rate of phosphorylation compared with related peptides, in words: 1.0 versus 1.1 and 1.2, 1.4 versus 1.3
T2 construct: purchased Millipore UK Ltd, Herts, UK
T2 sequence (Q00535 whole entry): as the sequence (Q00535 whole entry) above
T2 sequence (Q15078 99-307 partner limits assumed): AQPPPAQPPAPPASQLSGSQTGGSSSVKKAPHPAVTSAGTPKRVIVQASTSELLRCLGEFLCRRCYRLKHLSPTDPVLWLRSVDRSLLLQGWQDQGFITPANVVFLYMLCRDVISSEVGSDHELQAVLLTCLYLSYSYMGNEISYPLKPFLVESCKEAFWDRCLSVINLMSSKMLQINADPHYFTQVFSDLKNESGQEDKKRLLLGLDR
Method: as §2, §3

p25/CDK5 [4] = molecular target: T2, p25/CDK5; format: biochemical; conditions: inhibitor 10 μM, 30 min pre-incubation, GST-tau 0.5 μM, 2 mUnits kinase, Fig. 2b
Method: (§4) Recombinant protein substrates were incubated with 2mUnits of each CMGC kinase as for MBP above for the times and at the concentrations given in figure legends. Reactions were terminated by the addition of SDS-PAGE loading buffer and heating to 70 °C for 15 mins. Aliquots were subjected to SDS-PAGE, stained with Coomassie Brilliant Blue (CBR-250), the gels were dried and radiolabeled bands visualized by autoradiography. Quantification of nmoles of phosphate incorporated was obtained by excising the stained protein band from the gel and counting in scintillation fluid.
(§5) Recombinant protein substrates (0.5 μM final concentration) were incubated with 2mUnits of each CDK5 complex and MgCl2 and [γ-32P] ATP (approx 0.5x10^6 CPM/nmole) for 30 mins. Reactions were terminated by the addition of SDS-PAGE loading buffer and heating to 70 °C. […] Data is representative of at least three different experiments

p35/CDK5 [5] = molecular target: T1, p35/CDK5; format: biochemical; conditions: inhibitor 10 μM, 30 min pre-incubation, GST-tau 0.5 μM, 2 mUnits kinase, Fig. 2b
Method: as §4, §5

[6] = test system: CDK5 substrate phosphorylation in primary cortical neurons; test: Immunofluorescence of CDK5 substrate phosphorylation in primary cortical neurons; format: cell-based, rat; conditions: 10 μM inhibitor, 3 h, neurons 6 days in vitro, Fig. 3a
Method: Embryonic primary cortical neurons were isolated from Sprague–Dawley rats at day 18 gestation. Briefly, following dissection, cortex was digested in 0.25 % trypsin in Hank’s balanced salt solution at 37 °C for 20 min. Cells were manually dissociated by trituration using a fire-polished Pasteur pipette and plated onto 0.01 % poly-l-lysine-coated coverslips at a density of 2–5 × 10^6 cells per 6 cm well, then incubated at 37 °C with 5 % CO2 in Neurobasal medium (Gibco) containing 2 % (vol/vol) B27 serum replacement (Invitrogen), penicillin (Sigma; 100 units/ml), streptomycin (Sigma; 100 μg/ml), and 1 % (vol/vol) L-glutamine (Sigma). HeLa and tumour cell lines were maintained in DMEM supplemented with 4.5 g/L glucose, 10 % (vol/vol) FCS, 1 % (vol/vol) penicillin (100 units/ml)/streptomycin (100 μg/ml) at 37 °C in 5 % CO2. […]
Fig. 3 Imaging of CDK5 substrate phosphorylaiton in primary cells. […] Phosphospecific antibodies were detected by Cy-3 bound 2ry antibodies (red) and nuclei were counter-stained with the DNA-binding dye DAPI (blue). […]

[7] = test system: CDK5 substrate phosphorylation in primary cortical neurons; test: Immunohistochemistry of CDK5 substrate phosphorylation in paraffin-embedded primary neurons; format: cell-based, rat; conditions: 10 μM inhibitor, 3 h, formaldehyde fixed, Fig. 3b
Method: Sections of formalin-fixed, paraffin embedded tissue were cut at a thickness of 4 μm, collected onto Polysine-coated microscope slides (VWR International) and dried overnight at 37 °C. Sections were dewaxed in Histoclear, rinsed in alcohol and endogenous peroxidase was quenched with 0.5 % hydrogen peroxide (100 volumes) in methanol at room temperature for 35 min. After washing in water, antigen retrieval was performed by boiling sections in 10 mM citrate buffer, pH 6.0 for 15 min in a microwave. After cooling, sections were rinsed in PBS and blocked with 5 % normal serum in PBS containing 5 % (v/v) avidin (Vector Laboratories, Peterborough, UK) for 30 min at room temperature. Sections were washed in PBS and incubated with primary antibody in 5 % normal serum in PBS containing 5 % (v/v) biotin at 4 °C overnight. After washing in PBS, sections were then incubated with biotinylated secondary antibody (1:250) (Vector Laboratories) for 30 min at room temperature, followed by streptavidin complexed with biotinylated peroxidase (Vectastain ABC kit; Vector Laboratories) at room temperature for 30 min. […] Cell nuclei were counterstained with haematoxylin (Sigma), dehydrated through graded alcohols, cleared in HistoClear and mounted in DPX. Images were taken using a Spot Insight QE digital camera or slides were digitally scanned (x40) using an Aperio ScanScope XT.

PICTAIRE = test: Peptide kinase assay with […]; format: biochemical; conditions: 50 μM peptide, 2 mUnits kinase, 30 min, Fig. 1d
Method: as §2
Fig. 1 In vitro analysis of primary sequence determinants for p35/CDK5 and p25/CDK5. a The contribution of C-terminal Arg/Lys residues to recognition and phosphorylation by each CDK5 complex was assessed by incubating the peptides at the indicated concentrations with 2 m units of each CDK5 complex for 20 mins and measuring phosphate transferred to each peptide. b Each CDK5 complex was incubated for 20 mins with 100 μM of the indicated peptides representing the primary sequence of the 4 classes of CDK5 substrates. The phosphorylated residue is underlined. c To assess the contribution of specific residues ±2 positions from the target residue a further 4 peptides (at 100 μM) were incubated with 2mUnits of each CDK5 complex for 30 mins. […]

CDK5 = test system: CDK5; parameters: method as in PMID 19075597; conditions: application of carboplatin; cited from earlier work
p35/CDK5 [8] = molecular target: T1, p35/CDK5; test: Phosphorylation kinetics of recombinant protein substrates by p35/Cdk5; format: biochemical; conditions: initial rate, varying substrate concentrations, Mg[γ-32P]ATP, 10 min, 30 °C, Lineweaver-Burk, ND = not determinable, not phosphorylated to a significant level; for Vmax: at least two experiments in duplicate
Method: as §4

p25/CDK5 [9] = molecular target: T2, p25/CDK5; test: Phosphorylation kinetics of recombinant protein substrates by p25/Cdk5; format: biochemical; conditions: initial rate, varying substrate concentrations, Mg[γ-32P]ATP, 10 min, 30 °C, Lineweaver-Burk, ND = not determinable, not phosphorylated to a significant level; for Vmax: at least two experiments in duplicate
Method: as §4

Q: For CC[C@H](CO)Nc1nc(NCc2ccccc2)c2ncn(C(C)C)c2n1 [roscovitine], which Effect on proliferation (MCF-7) is on record?
A: enhances the proliferation

Q: What about the Effect on proliferation (MDA-MB321) of the same molecule?
A: enhances the proliferation

Q: For KKASAPKSPARPRS [peptide 1.1], which “Selectivity of peptide substrate among CMGC kinases, in words” value (shortened to “Selectivity”) [1] is on record?
A: CDK5 is the most effective kinase

Q: Which “Phosphorylation of substrate class peptides, in words” value (p35/CDK5 [2]) does the source give for KKASAPVSPPRDRK [Class 2] here?
A: relatively poor substrate

Q: And the “Phosphorylation of substrate class peptides, in words” value (p25/CDK5 [3])?
A: relatively poor substrate

Q: Which results are given for CC(C)[C@H](CO)Nc1nc(Nc2cccc(Cl)c2)c2ncn(C(C)C)c2n1 [purvalanol A]?
A: Effect of CDK inhibitor on tau phosphorylation in vitro (p25/CDK5 [4]): completely blocked; Effect of CDK inhibitor on tau phosphorylation in vitro (p35/CDK5 [5]): completely blocked; CRMP2 phosphorylation at Ser522 (immunofluorescence) [6]: reduces; CRMP4 phosphorylation at Ser522 (immunofluorescence) [6]: does not alter; Intensity of staining and number of cells stained for phospho-Ser522 of CRMP2 (immunohistochemistry) [7]: reduced; Tau phosphorylation at Ser235 (immunohistochemistry) [7]: not significantly affected; Tau phosphorylation at Thr205 (immunohistochemistry) [7]: not significantly affected

Q: With KKASAPKSPRKPRS [peptide 1.0] as the molecule, how does the “Rate of phosphorylation compared with related peptides, in words” value (p35/CDK5 [2]; 2 mUnits, 30 min, Fig. 1c) read?
A: twice the rate

Q: And the “Phosphorylation of substrate class peptides, in words” value (p35/CDK5 [2])?
A: much better substrates

Q: What about the “Rate of phosphorylation compared with related peptides, in words” value (p25/CDK5 [3]; 2 mUnits, 30 min, Fig. 1c) of the same molecule?
A: twice the rate

Q: What about the “Phosphorylation of substrate class peptides, in words” value (p25/CDK5 [3]) of the same molecule?
A: much better substrates

Q: And the “Phosphorylation by PICTAIRE relative to a matched amount of MBP kinase activity of CDK5” value (PICTAIRE)?
A: < 80%

Q: And the “Selectivity” value [1]?
A: highly selective for CDK5

Q: For KKASAPVSPRKPRS [peptide 1.2], which “Selectivity” value [1] is on record?
A: CDK5 is the most effective kinase

Q: What does the source list for KKPKSRRSPPSIPT [Class 3]?
A: Phosphorylation of substrate class peptides, in words (p35/CDK5 [2]): not phosphorylated; Phosphorylation of substrate class peptides, in words (p25/CDK5 [3]): not phosphorylated

Q: With N.N.O=C([O-])C1(C(=O)[O-])CCC1.[Pt+2] [carboplatin] as the molecule, how does the “Effect on CDK5 activity” value (CDK5) read?
A: induces CDK5 activation

Q: For KKENNVLSPLPSQA [Class 4], which “Phosphorylation of substrate class peptides, in words” value (p35/CDK5 [2]) is on record?
A: not phosphorylated

Q: What about the “Phosphorylation of substrate class peptides, in words” value (p25/CDK5 [3]) of the same molecule?
A: not phosphorylated

Q: What does the source list for KKASAPKSPPKPRS [peptide 1.3]?
A: Reduction of rate of phosphorylation compared to peptide 1.0 and 1.1 (p35/CDK5 [2]; 2 mUnits, 30 min, Fig. 1c): > 90%; Reduction of rate of phosphorylation compared to peptide 1.0 and 1.1 (p25/CDK5 [3]; 2 mUnits, 30 min, Fig. 1c): > 90%; Phosphorylation by PICTAIRE compared with CDK5, in words (PICTAIRE): to a greater extent than CDK5

Q: With “CRMP4: recombinant collapsin response mediator protein 4, proposed CDK5 substrate” as the molecule, how does the Km (p35/CDK5 [8]) read?
A: 0.401 µM

Q: And the Vmax (p35/CDK5 [8])?
A: 0.665 pmol/min

Q: And the Km (p25/CDK5 [9])?
A: 0.252 µM

Q: What about the Vmax (p25/CDK5 [9]) of the same molecule?
A: 0.155 pmol/min

Q: With KKASAAKSPPKPRS [peptide 1.4] as the molecule, how does the “Rate of phosphorylation compared with related peptides, in words” value (p35/CDK5 [2]; 2 mUnits, 30 min, Fig. 1c) read?
A: did not restore phosphorylation

Q: What about the “Rate of phosphorylation compared with related peptides, in words” value (p25/CDK5 [3]; 2 mUnits, 30 min, Fig. 1c) of the same molecule?
A: did not restore phosphorylation

Q: For “CRMP1: recombinant collapsin response mediator protein 1, proposed CDK5 substrate”, which Km (p35/CDK5 [8]) is on record?
A: 1.26 µM

Q: And the Vmax (p35/CDK5 [8])?
A: 0.735 pmol/min

Q: And the Km (p25/CDK5 [9])?
A: 1.46 µM

Q: What about the Vmax (p25/CDK5 [9]) of the same molecule?
A: 0.191 pmol/min
